Results published in patent US12643907B2 (priority 2020, dated 2026).
Entries after “also recorded” stand apart in the source; their conditions may differ.

Assays:
[1] = naloxone; cited from earlier work
[2] = target: T1, MOR (Mus musculus, UniProt P42866); test: Mouse 55° C. warm-water tail withdrawal (WWTW) assay, antagonism of the MOR agonist morphine; type: in vivo; settings: for antagonism of morphine-induced antinociception at 24 h: 24 h after a 30 mg/kg s.c. treatment
T1 construct: from tissue; host or cells: living mice (in vivo)
T1 sequence (P42866 whole entry): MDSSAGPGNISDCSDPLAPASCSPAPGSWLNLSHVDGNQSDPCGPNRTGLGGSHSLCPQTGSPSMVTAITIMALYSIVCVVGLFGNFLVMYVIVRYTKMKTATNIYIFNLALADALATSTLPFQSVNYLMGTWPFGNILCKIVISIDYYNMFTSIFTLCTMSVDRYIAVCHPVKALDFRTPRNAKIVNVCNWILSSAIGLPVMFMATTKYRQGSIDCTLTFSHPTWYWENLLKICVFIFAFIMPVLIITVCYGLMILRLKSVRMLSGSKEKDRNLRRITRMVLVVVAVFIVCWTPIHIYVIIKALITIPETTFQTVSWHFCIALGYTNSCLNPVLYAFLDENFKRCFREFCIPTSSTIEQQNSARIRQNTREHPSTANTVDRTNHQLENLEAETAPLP

[3] = tested on: mice; test: Mouse 55° C. tail-withdrawal assay, antinociception of the compound itself (opioid agonist effects); type: in vivo; settings: s.c.

C=CCN1CC[C@]23c4c5ccc(O)c4O[C@H]2C(=O)CC[C@@]3(O)[C@H]1C5 [naloxone]
half-life [1]: 2 h

C=CCN1CC[C@]23c4c5ccc(O)c4O[C@H]2[C@H](N(C)CCS(=O)(=O)F)CC[C@@]3(O)C1C5 [TJ-171]
duration of MOR antagonism ([2]; 30 mg/kg, s.c.): at least 24 hours | antagonism of morphine-induced antinociception at 24 h [2]: fully antagonized | antinociception of compound alone (opioid agonist effects) ([3]; doses up to 30 mg/kg): did not display antinociception; also recorded: no antinociception

C=CCN1CCC23c4c5ccc(O)c4OC2C(N(C)CCS(=O)(=O)F)CCC3(O)C1C5 (racemic) [TJ-345]
antagonism of morphine-induced antinociception at 24 h ([2]; 30 mg/kg): only partial blockade; also recorded: only partially antagonized | duration of blockade of opiate analgesia ([2]; doses as low as 3 nmol (i.c.v) or 30 mg/kg (s.c.)): 24 to 48 h | doses that antagonized morphine antinociception ([2]; i.c.v. pretreatment, not 0.3 nmol): 3 to 300 nmol | doses that antagonized morphine antinociception ([2]; s.c. pretreatment, not 1 mg/kg): 3 to 60 mg/kg | weak transient antinociception of compound alone ([3]; >30 nmol i.c.v. or 60 mg/kg, first 40 min after treatment): ~15%
